Data from PubChem BioAssay AID1259407 (Chemical Carcinogenesis Research Information System (CCRIS), 2018).
The source made the active and inactive calls. How the calls were made is not given here.

Test system: CCRIS mutagenicity, Ames/micronucleus/aberration tests
Assay: CCRIS mutagenicity studies
[1] = Test System: AMES SALMONELLA TYPHIMURIUM, Strain/Indicator: TA100, Metabolic Activation: NONE, Method: PREINCUBATION
[2] = Test System: AMES SALMONELLA TYPHIMURIUM, Strain/Indicator: TA100, Metabolic Activation: RAT, LIVER, S-9, AROCLOR 1254, Method: STANDARD PLATE
[3] = Test System: AMES SALMONELLA TYPHIMURIUM, Strain/Indicator: TA1535, Metabolic Activation: NONE, Method: STANDARD PLATE

## S=c1nc[nH]c2nc[nH]c12
End Point: IN VITRO MICRONUCLEUS, Test System: CHL/IU CELLS, Metabolic Activation: NONE
  mutagenic call: active; positive
End Point: IN VITRO MICRONUCLEUS, Test System: CHO CELLS, Metabolic Activation: RAT, LIVER, S-9, AROCLOR 1254
  mutagenic call: inactive; negative
Test System: AMES SALMONELLA TYPHIMURIUM, Strain/Indicator: TA97, Metabolic Activation: HAMSTER, LIVER, S-9, AROCLOR 1254 (30%), Method: PREINCUBATION
  mutagenic call: inactive; negative
Test System: AMES SALMONELLA TYPHIMURIUM, Strain/Indicator: TA97, Metabolic Activation: NONE, Method: PREINCUBATION
  mutagenic call: inactive; negative
Test System: AMES SALMONELLA TYPHIMURIUM, Strain/Indicator: TA97, Metabolic Activation: NONE, Method: STANDARD PLATE
  mutagenic call: inactive; negative
Test System: AMES SALMONELLA TYPHIMURIUM, Strain/Indicator: TA97, Metabolic Activation: RAT, LIVER, S-9, AROCLOR 1254 (30%), Method: PREINCUBATION
  mutagenic call: inactive; negative
Test System: AMES SALMONELLA TYPHIMURIUM, Strain/Indicator: TA97, Metabolic Activation: RAT, LIVER, S-9, PHENOBARBITAL AND ALPHA-NAPHTHOFLAVONE, Method: STANDARD PLATE
  mutagenic call: inactive; negative
Test System: AMES SALMONELLA TYPHIMURIUM, Strain/Indicator: TA98, Metabolic Activation: HAMSTER, LIVER, S-9, AROCLOR 1254 (30%), Method: PREINCUBATION
  mutagenic call: inactive; negative
Test System: AMES SALMONELLA TYPHIMURIUM, Strain/Indicator: TA98, Metabolic Activation: NONE, Method: PREINCUBATION
  mutagenic call: inactive; negative
Test System: AMES SALMONELLA TYPHIMURIUM, Strain/Indicator: TA98, Metabolic Activation: NONE, Method: SPIRAL ASSAY
  mutagenic call: inactive; negative
Test System: AMES SALMONELLA TYPHIMURIUM, Strain/Indicator: TA98, Metabolic Activation: NONE, Method: STANDARD PLATE
  mutagenic call: inactive; negative
Test System: AMES SALMONELLA TYPHIMURIUM, Strain/Indicator: TA98, Metabolic Activation: RAT, LIVER, S-9, AROCLOR 1254 (30%), Method: PREINCUBATION
  mutagenic call: inactive; negative
Test System: AMES SALMONELLA TYPHIMURIUM, Strain/Indicator: TA98, Metabolic Activation: RAT, LIVER, S-9, AROCLOR 1254, Method: SPIRAL ASSAY
  mutagenic call: inactive; negative
Test System: AMES SALMONELLA TYPHIMURIUM, Strain/Indicator: TA98, Metabolic Activation: RAT, LIVER, S-9, AROCLOR 1254, Method: STANDARD PLATE
  mutagenic call: inactive; negative
Test System: AMES SALMONELLA TYPHIMURIUM, Strain/Indicator: TA98, Metabolic Activation: RAT, LIVER, S-9, PHENOBARBITAL AND ALPHA-NAPHTHOFLAVONE, Method: STANDARD PLATE
  mutagenic call: inactive; negative
Test System: AMES SALMONELLA TYPHIMURIUM, Strain/Indicator: TA100, Metabolic Activation: HAMSTER, LIVER, S-9, AROCLOR 1254 (30%), Method: PREINCUBATION
  mutagenic call: inactive; negative
[1]
  mutagenic call: inactive; negative
Test System: AMES SALMONELLA TYPHIMURIUM, Strain/Indicator: TA100, Metabolic Activation: NONE, Method: SPIRAL ASSAY
  mutagenic call: inactive; negative
Test System: AMES SALMONELLA TYPHIMURIUM, Strain/Indicator: TA100, Metabolic Activation: RAT, LIVER, S-9, AROCLOR 1254 (30%), Method: PREINCUBATION
  mutagenic call: inactive; negative
Test System: AMES SALMONELLA TYPHIMURIUM, Strain/Indicator: TA100, Metabolic Activation: RAT, LIVER, S-9, AROCLOR 1254, Method: SPIRAL ASSAY
  mutagenic call: inactive; negative
[2]
  mutagenic call: inactive; negative
Test System: AMES SALMONELLA TYPHIMURIUM, Strain/Indicator: TA100, Metabolic Activation: RAT, LIVER, S-9, PHENOBARBITAL AND ALPHA-NAPHTHOFLAVONE, Method: STANDARD PLATE
  mutagenic call: inactive; negative
Test System: AMES SALMONELLA TYPHIMURIUM, Strain/Indicator: TA102, Metabolic Activation: NONE, Method: STANDARD PLATE
  mutagenic call: inactive; negative
Test System: AMES SALMONELLA TYPHIMURIUM, Strain/Indicator: TA1535, Metabolic Activation: HAMSTER, LIVER, S-9, AROCLOR 1254 (30%), Method: PREINCUBATION
  mutagenic call: active; positive
Test System: AMES SALMONELLA TYPHIMURIUM, Strain/Indicator: TA1535, Metabolic Activation: NONE, Method: PREINCUBATION
  mutagenic call: active; positive
Test System: AMES SALMONELLA TYPHIMURIUM, Strain/Indicator: TA1535, Metabolic Activation: NONE, Method: SPIRAL ASSAY
  mutagenic call: active; positive
[3]
  mutagenic call: active; positive
Test System: AMES SALMONELLA TYPHIMURIUM, Strain/Indicator: TA1535, Metabolic Activation: RAT, LIVER, S-9, AROCLOR 1254 (30%), Method: PREINCUBATION
  mutagenic call: active; positive
Test System: AMES SALMONELLA TYPHIMURIUM, Strain/Indicator: TA1535, Metabolic Activation: RAT, LIVER, S-9, AROCLOR 1254, Method: SPIRAL ASSAY
  mutagenic call: active; positive
Test System: AMES SALMONELLA TYPHIMURIUM, Strain/Indicator: TA1535, Metabolic Activation: RAT, LIVER, S-9, AROCLOR 1254, Method: STANDARD PLATE
  mutagenic call: active; positive
Test System: AMES SALMONELLA TYPHIMURIUM, Strain/Indicator: TA1535, Metabolic Activation: RAT, LIVER, S-9, PHENOBARBITAL AND ALPHA-NAPHTHOFLAVONE, Method: STANDARD PLATE
  mutagenic call: active; positive
Test System: AMES SALMONELLA TYPHIMURIUM, Strain/Indicator: TA1537, Metabolic Activation: NONE, Method: SPIRAL ASSAY
  mutagenic call: inactive; negative
Test System: AMES SALMONELLA TYPHIMURIUM, Strain/Indicator: TA1537, Metabolic Activation: NONE, Method: STANDARD PLATE
  mutagenic call: inactive; negative
Test System: AMES SALMONELLA TYPHIMURIUM, Strain/Indicator: TA1537, Metabolic Activation: RAT, LIVER, S-9, AROCLOR 1254, Method: SPIRAL ASSAY
  mutagenic call: inactive; negative
Test System: AMES SALMONELLA TYPHIMURIUM, Strain/Indicator: TA1537, Metabolic Activation: RAT, LIVER, S-9, AROCLOR 1254, Method: STANDARD PLATE
  mutagenic call: inactive; negative
Test System: CHINESE HAMSTER V-79, Strain/Indicator: V-79/6-THIOGUANINE, Metabolic Activation: NONE, Method: SUSPENSION/PLATE
  mutagenic call: active; positive
Test System: CHINESE HAMSTER V-79, Strain/Indicator: V-79/6-THIOGUANINE, Metabolic Activation: RAT, LIVER, HEPATOCYTES, Method: SUSPENSION/PLATE
  mutagenic call: active; positive
Test System: E. COLI, Strain/Indicator: WP2 (HCR), Metabolic Activation: NONE, Method: STANDARD PLATE
  mutagenic call: inactive; negative
Test System: UDS RAT HEPATOCYTES, Strain/Indicator: THY INCORP, Metabolic Activation: NONE, Method: AUTORADIOGRAPHY (SERUM-FREE MEDIA)
  mutagenic call: inactive; negative

## OCCS
[1]
  mutagenic call: inactive; negative

## CS(=O)(=O)O
Test System: AMES SALMONELLA TYPHIMURIUM, Strain/Indicator: TA100, Metabolic Activation: NONE, Method: STANDARD PLATE
  mutagenic call: inactive; negative
Test System: AMES SALMONELLA TYPHIMURIUM, Strain/Indicator: TA100, Metabolic Activation: RAT, LIVER, S-9, AROCLOR 1254 (10%), Method: STANDARD PLATE
  mutagenic call: inactive; negative
[3]
  mutagenic call: inactive; negative
Test System: AMES SALMONELLA TYPHIMURIUM, Strain/Indicator: TA1535, Metabolic Activation: RAT, LIVER, S-9, AROCLOR 1254 (10%), Method: STANDARD PLATE
  mutagenic call: inactive; negative

## O=[Se](=O)(O)O
[3]
  mutagenic call: active; positive
Test System: AMES SALMONELLA TYPHIMURIUM, Strain/Indicator: TA1535, Metabolic Activation: NONE, Method: STANDARD PLATE (MEDIUM WITH TRIMETAPHOSPHATE IONS)
  mutagenic call: active; positive
Test System: UDS HUMAN FIBROBLASTS, Strain/Indicator: THY INCORP (NON-S-PHASE), Metabolic Activation: MOUSE, LIVER, S-9, Method: AUTORADIOGRAPHY
  mutagenic call: active; positive
Test System: UDS HUMAN FIBROBLASTS, Strain/Indicator: THY INCORP (NON-S-PHASE), Metabolic Activation: NONE, Method: AUTORADIOGRAPHY
  mutagenic call: active; positive

## O=S(=O)(O)N(O)S(=O)(=O)O
Test System: AMES SALMONELLA TYPHIMURIUM, Strain/Indicator: G46, Metabolic Activation: RAT, LIVER, S-9, AROCLOR 1254, Method: STANDARD PLATE
  mutagenic call: active; positive
[2]
  mutagenic call: active; positive

## CNP(=O)(NC)NC
Test System: AMES SALMONELLA TYPHIMURIUM, Strain/Indicator: TA100, Metabolic Activation: NONE, Method: SUSPENSION
  mutagenic call: inactive; negative
Test System: AMES SALMONELLA TYPHIMURIUM, Strain/Indicator: TA100, Metabolic Activation: RAT, LIVER, S-9, AROCLOR 1254, Method: SUSPENSION
  mutagenic call: inactive; negative
